Reference: PubChem BioAssay AID2387 (Broad Institute, 2010)
pEC50: −log10 of the molar value. Active and inactive are the calls of the source.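 How the source made its calls: active means fitted EC50 no more than tenfold above the highest tested concentration; inconclusive means flat fit with 30 to 70% signal loss, or poor fit; inactive means the rest.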

tested on: Candida albicans CaCi-2 growth (no fluconazole), Alamar Blue; assay: C. albicans growth inhibition without fluconazole, dose response, counter-screen for fluconazole resistance reversal project, CaCi-2 strain, Alamar Blue fluorescence (AID 2387); conditions: C. albicans CaCi-2 (fluconazole-resistant clinical isolate) growth without fluconazole, 48 h

Row | SMILES | pEC50 | EC50
1 | Clc1ccccc1C(c1ccccc1)(c1ccccc1)n1ccnc1 | 5.80 | 
2 | CCC(=O)NC(c1ccc(C)cc1)c1cc([N+](=O)[O-])c2cccnc2c1O (stereo not given) |  | > 15 µM (inactive)
3 | CCCCC(=O)NC(c1ccc(Cl)cc1)c1ccc2cccnc2c1O (stereo not given) | 5.00 | 
4 | Oc1c(CN2CCN(c3ccc(F)cc3)CC2)cc(Cl)c2cccnc12 | 5.56 | 
5 | Cc1ccc(C)c(-c2nnc(NC(=O)c3ccco3)o2)c1 |  | > 16 µM (inactive)
